Data: patent US7776826B2, “Method for fostering bone formation and preservation” (Unigene Laboratories, Inc., priority 2004, dated 2010)

What was measured:
Male Sprague-Dawley rats [1] = experiment: pQCT analysis of left (ablated) and right (non-ablated) femoral shafts, Groups A-J; format: in vivo, rat; settings: for Left femoral shaft Total density mean / Left femoral shaft Trabecular density mean: ablated femur; for new trabecular bone formation in left femoral shaft, in words: bmx, pQCT; for Right femoral shaft Total density mean / Right femoral shaft Trabecular density mean: non-ablated femur (bmx on contralateral left femur)
Text: FIG. 4 (a-d) are graphical representations of the results of Peripheral Quantitative Computerized Tomography (PQCT) analyses of, respectively, the left (ablated) and right (non-ablated) femoral shafts of the rats which are the subject of FIG. 3 above. FIGS. 4(a) and 4(b) illustrate the trabecular bone density observed in respectively, the left and right femoral shafts of these rats, whereas, FIGS. 4(c) and 4(d) illustrate the total bone density of the respective shafts. The meanings of the abbreviations used in FIGS. 4a-4d are identical to those described above with regard to FIG. 3 (a-e);
All of the data presented above are based on analyses carried out solely of the distal epiphysis portion of the rat femurs. Subsequently, however, to avoid the above-described drawbacks associated with reading the bone density at the level of the epiphysis, the inventors undertook to further analyze the remaining portions of the animals' femur bones and particularly, areas along the length of the cortical shaft. […] In the discussion which follows, directed to the results of these additional analyses, the reader is reminded that the bone marrow ablation (bmx) technique was practiced, in all cases, only on the left femur of the test animals. That is to say, there was no ablation of the marrow portion in the right femur. Thus, in the right femur views discussed below, wherein the illustration or graph relating to the right femur is labeled with the abbreviation “bmx”, etc. to describe the modality of treatment which the rat was subjected to, one should understand such labeling to mean that the view is of a right femur, or is of a graph which presents a value obtained pursuant to the analysis of such right femur, wherein the animal's corresponding left femur underwent a bone marrow ablation treatment in the manner described herein.
FIG. 4 (a-d) graphically illustrate the formation of both trabecular bone and, to some extent, total bone, within the left femoral shaft in rats from the Groups described in Tables 1 and/or 2 above, wherein the left femur was subjected to a bmx (bone marrow ablation) treatment coupled with a concurrent and/or subsequent administration of one or more bone anabolic agents, including parathyroid hormone (PTH[1-34]-NH2) and one or more anti-resorptive agents such as salmon calcitonin. […] The effects of these last two combinations protects the significant initial bone formation induced by bmx, but not to the same extent as parathyroid hormone (PTH[1-34]-NH2) alone.
FIGS. 4(b) and 4(d) are provided to illustrate the results obtained with the same animals' corresponding right femoral shafts, i.e, in which bone marrow ablation (bmx) was not performed. Little or no new bone formation was observed, i.e, the density remained substantially constant, since the only treatment received by the right femurs was due to the systemic administration of the bone anabolic agent. The agent(s) was administered for too short a period to have, by itself, any real positive effect on the bone density. In fact, the total bone density curve for the right femoral shaft presents a substantially straight line, which is attributable to the fact that the total density measurement includes a measurement of cortical bone. Furthermore, since the anabolic agent was not administered for a period sufficient to increase cortical bone density, the total density remained unchanged.
The table additionally includes the standard deviations (“sd”) for the values obtained for each analysis, which standard deviations are also indicated in FIG. 4 (a-d).
The results set forth in FIGS. 1, 2, 4, 5, 11 and 12 and the corresponding Tables, Nos. 1, 2, 3, 4, 5 and 6 discussed above were obtained with the use of a method for mechanically inducing increased osteoblast activity as illustrated in FIGS. 14A-14D. […]

Male Sprague-Dawley rats [2] = experiment: Serum osteocalcin concentration on day of sacrifice, Groups A-J; format: in vivo, rat; settings: bmx rats; for serum osteocalcin level, in words: up to 21 days; for Osteocalcin mean: serum
Text: FIG. 5 provides a series of measurements of the serum osteocalcin concentration (in ng/ml) in the blood of the rats which are the subjects of FIGS. 3-4 on the day of sacrifice. The meaning of the abbreviations is the same as that in FIGS. 3-4;
FIG. 5 provides a graphical representation of the osteocalcin levels determined, at the time of sacrifice, in the serum of rats subjected to the following treatment modalities: bmx+PBS; bmx+ parathyroid hormone (PTH[1-34]-NH2); bmx+salmon calcitonin (CT); and bmx+ parathyroid hormone (PTH[1-34]-NH2)+CT. It is well known by those of ordinary skill in this art that osteocalcin is a biochemical marker related to the number of osteoblasts, i.e, a measure of new bone growth, which may be measured in the blood serum of the animal. […] That is, administering CT reduces the rate of bone turn-over.
Table 4 additionally provides the standard deviations for the values obtained during each of the indicated analyses, which standard deviations are also indicated in FIG. 5.
On the day of sacrifice, each rat was euthanized in a CO2 chamber. The rat's blood was then collected via a cardiac puncture. The femurs were removed and fixed in a 4% formalin solution, after which they were dehydrated in a graded series of ethanol solutions.
The bones were thereafter subjected to a variety of sample analysis techniques. These included X-ray analysis wherein the femurs were X-rayed in individually sealed plastic bags; PIXIMUS analysis using a Lunar PIXIMUS scanner to measure bone mineral density in the bone marrow cavity of the femurs; MicroCT analysis; and blood analysis for osteocalcin, PTH, CT, NTX and growth factors.

Row | Substance | Left femoral shaft Total density mean (Male Sprague-Dawley rats [1]; Day 0) [mg/mL] | Left femoral shaft Trabecular density mean (Male Sprague-Dawley rats [1]; Day 0) [mg/mL] | Left femoral shaft Total density mean (Male Sprague-Dawley rats [1]; Day 7) [mg/mL] | Left femoral shaft Trabecular density mean (Male Sprague-Dawley rats [1]; Day 7) [mg/mL] | Left femoral shaft Total density mean (Male Sprague-Dawley rats [1]; Day 14) [mg/mL] | Left femoral shaft Trabecular density mean (Male Sprague-Dawley rats [1]; Day 14) [mg/mL] | Left femoral shaft Total density mean (Male Sprague-Dawley rats [1]; Day 21) [mg/mL] | Left femoral shaft Trabecular density mean (Male Sprague-Dawley rats [1]; Day 21) [mg/mL] | new trabecular bone formation in left femoral shaft, in words (Male Sprague-Dawley rats [1]) | Right femoral shaft Total density mean (Male Sprague-Dawley rats [1]; Day 0) [mg/mL] | Right femoral shaft Trabecular density mean (Male Sprague-Dawley rats [1]; Day 0) [mg/mL] | Right femoral shaft Total density mean (Male Sprague-Dawley rats [1]; Day 7) [mg/mL] | Right femoral shaft Trabecular density mean (Male Sprague-Dawley rats [1]; Day 7) [mg/mL] | Right femoral shaft Total density mean (Male Sprague-Dawley rats [1]; Day 14) [mg/mL] | Right femoral shaft Trabecular density mean (Male Sprague-Dawley rats [1]; Day 14) [mg/mL] | Right femoral shaft Total density mean (Male Sprague-Dawley rats [1]; Day 21) [mg/mL] | Right femoral shaft Trabecular density mean (Male Sprague-Dawley rats [1]; Day 21) [mg/mL] | serum osteocalcin level, in words (Male Sprague-Dawley rats [2]) | Osteocalcin mean (Male Sprague-Dawley rats [2]; Day 0) [ng/mL] | Osteocalcin mean (Male Sprague-Dawley rats [2]; Day 7) [ng/mL] | other results
1 | PTH[1-34]-NH2 | 726.1 | 21.4 | 867.5 | 243.8 | 968.7 | 465.4 | 1046.7 | 511.2 | greatest formation of new trabecular bone | 787.2 | 12.9 | 848.2 | 1.5 | 871 | 13.7 | 864.8 | 10.7 | highest and most consistent level of osteocalcin | 108.2 | 125.5 | Osteocalcin mean (Male Sprague-Dawley rats [2]; Day 14): 125.4 ng/mL; Osteocalcin mean (Male Sprague-Dawley rats [2]; Day 21): 117.8 ng/mL
2 | salmon calcitonin [CT, reference compound] | 726.1 | 21.4 | 833.6 | 232.2 | 876.2 | 257 | 833.2 | 163.5 | Beneficial results | 787.2 | 12.9 | 797.4 | 1.2 | 821.9 | 10.9 | 821.3 | 10.8 | relatively steady state value of osteocalcin | 108.2 | 100.5 | Osteocalcin mean (Male Sprague-Dawley rats [2]; Day 14): 101 ng/mL; Osteocalcin mean (Male Sprague-Dawley rats [2]; Day 21): 69.5 ng/mL
